Results reported in patent publication US7105508B1, “Integrin receptors antagonists” (Abbott GmbH & Co. KG, priority 1999, dated 2006).

Target: T1, integrin αvβ3 (Homo sapiens, UniProt P05106+P06756)
T1 construct: from tissue; host or cells: human placenta
Test: Integrin αvβ3 assay (competition with vitronectin for solid phase-bound integrin αvβ3)
Conditions: competition with human vitronectin for binding to solid phase-bound integrin αvβ3 from human placenta; qualitative ranking only
Description: Integrin αvβ3 antagonists were identified and assessed by using an assay system based on competition between the natural integrin αvβ3 ligand vitronectin and the test substance for binding to solid phase-bound integrin αvβ3.
• Coat microtiter plates with 250 ng/ml integrin αvβ3 in 0.05 M NaHCO3 pH 9.2; 0.1 ml/well; • saturate with 1% milk powder/assay buffer; 0.3 ml/well; 0.5 h/RT • wash 3× with 0.05% Tween 20/assay buffer • test substance in 0.1% milk powder/assay buffer, 50 μl/well+0 μg/ml or 2 μg/ml human vitronectin (Boehringer Ingelheim T007) in 0.1% milk powder/assay buffer, 50 μl/well; 1 h/RT • wash 3× with 0.05% Tween 20/assay buffer • 1 μg/ml anti-human vitronectin antibody coupled to peroxidase (Kordia SAVN-APHRP) in 0.1% milk powder/assay buffer; 0.1 ml/well; 1 h/RT • wash 3× with 0.05% Tween 20/assay buffer • 0.1 ml/well peroxidase substrate • stop reaction with 0.1 ml/well 2 M H2SO4 • measure absorption at 450 nm
Integrin αvβ3: human placenta is solubilized with Nonidet, and integrin αvβ3 is affinity-purified on a GRGDSPK matrix (elution with EDTA). Contamination by integrin αIIbβ3 and human serum albumin, and the detergent and EDTA, are removed by anion exchange chromatography.
Assay buffer: 50 mM Tris pH 7.5; 100 mM NaCl; 1 mM CaCl2; 1 mM MgCl2; 10 μM MnCl2
Peroxidase substrate: mix 0.1 ml of TMB solution (42 mM TMB in DMSO) and 10 ml of substrate buffer (0.1 M Na acetate, pH 4.9) and then add 14.7 μl of 3% H2O2.
Various dilutions of the test substances are used in the assay, and the IC50 values are determined (concentration of the antagonist at which 50% of the ligand is displaced).

| IC50 values (concentration of the antagonist at which 50% of the ligand is displaced) | SMILES |
| --- | --- |
| best results | CC(=O)OC1c2ccccc2C(=O)N(CC(=O)NCc2ccc(Nc3nc4ccccc4[nH]3)cc2)c2ccccc21 (stereo not shown) [Example I.B.37, 5-(2-{[4-(1H-Benzimidazol-2-ylamino)benzyl]amino}-2-oxoethyl)-6-oxo-6,11-dihydro-5H-dibenzo[b,e]azepin-11-yl acetate] |
| best results | CC(=O)OC1c2ccccc2C(=O)N(CC(=O)NCc2cnc(NC(=N)N)s2)c2ccccc21 (stereo not shown) [Example I.B.46, 5-(2-{[(2-{[Amino(imino)methyl]amino}-1,3-thiazol-5-yl)-methyl]amino}-2-oxoethyl)-6-oxo-6,11-dihydro-5H-dibenzo[b,e]-azepin-11-yl acetate] |
| best results | O=C(O)CC1c2ccccc2C(=O)N(CC(=O)NCc2ccc(NC(=O)NCc3ccccc3)cc2)c2ccccc21 (stereo not shown) [Example I.B.52, (5-{2-[(4-{[(Benzylamino)carbonyl]amino}benzyl)amino]-2-oxoethyl}-6-oxo-6,11-dihydro-5H-dibenzo[b,e]azepin-11-yl)acetic acid] |
| best results | CC(=O)OC1c2ccccc2C(=O)N(Cc2nc(C(=O)NCc3cc(CNc4ccccn4)cs3)cs2)c2ccccc21 (stereo not shown) [Example I.B.118, 6-Oxo-5-[(4-{[({4-[(2-pyridinylamino)methyl]-2-thienyl}methyl)-amino]carbonyl}-1,3-thiazol-2-yl)methyl]-6,11-dihydro-5H-dibenzo [b,e]azepin-11-yl acetate] |
